Measurements: publication PMC9704104, “Towards safer anti-inflammatory therapy: synthesis of new thymol–pyrazole hybrids as dual COX-2/5-LOX inhibitors” (Journal of Enzyme Inhibition and Medicinal Chemistry, 2022)

Columns and labels:
COX-2 = molecular target: T1, COX-2 (Ovis aries, UniProt P79208); test: In vitro COX-2 inhibitory assay (Cayman colorimetric COX (ovine) inhibitor screening assay kit); format: biochemical
T1 sequence (P79208 17-603): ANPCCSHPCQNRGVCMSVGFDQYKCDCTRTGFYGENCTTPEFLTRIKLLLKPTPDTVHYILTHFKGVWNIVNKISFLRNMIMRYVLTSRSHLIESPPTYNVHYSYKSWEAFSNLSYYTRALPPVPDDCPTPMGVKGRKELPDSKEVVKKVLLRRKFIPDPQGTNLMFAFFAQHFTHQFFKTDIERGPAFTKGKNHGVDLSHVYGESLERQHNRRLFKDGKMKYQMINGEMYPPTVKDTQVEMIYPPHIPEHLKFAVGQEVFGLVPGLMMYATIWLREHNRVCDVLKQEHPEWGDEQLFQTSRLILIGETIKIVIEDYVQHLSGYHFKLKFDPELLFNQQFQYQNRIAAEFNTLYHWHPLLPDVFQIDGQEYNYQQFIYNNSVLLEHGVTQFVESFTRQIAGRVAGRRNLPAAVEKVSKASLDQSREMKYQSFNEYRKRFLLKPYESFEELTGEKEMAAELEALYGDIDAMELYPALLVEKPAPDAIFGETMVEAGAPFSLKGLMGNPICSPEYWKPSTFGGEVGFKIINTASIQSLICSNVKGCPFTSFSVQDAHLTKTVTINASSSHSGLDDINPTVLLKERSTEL
Procedure: (Page: S20, Supplementary file).
Anti-inflammatory activity
In vitro COX-1 and COX-2 inhibitory assay […]
supplied by Cayman chemicals, Ann Arbor, MI, USA according to reported method 1. The colorimetric COX inhibitor screening assay utilizes the peroxidase component of cyclooxygenase. The peroxidase activity was assayed calorimetrically by monitoring the appearance of oxidized N,N,N',N'-tetramethyl-1,4-phenylenediamine (TMPD) at 590nm. The appearance of reagent was carried out following the instructions […]
The half- maximal inhibitor concentrations (IC50µM) were determined and the selectivity index (SI) values were calculated as IC50 (COX-1)/IC50 (COX-2).
1) Background wells- 160 µL of assay buffer and 10 µL of heme were added to background wells.
2) The 100% Initial activity wells- 150 µL of assay buffer, 10 µL of heme and 10 µL of enzyme (COX-1 or COX-2) were added.
3) Inhibitor well- 150 µL of assay buffer, 10 µL of heme and 10 µL of enzyme were added. […]
10) The absorbance was measured at 590 nm using a plate reader. […]
1) The average absorbance of all samples was determined.
2) The absorbance of background wells was subtracted from absorbance of the 100% Initial activity […]
7) Remove the cover and read the absorbance at 490-500 nm using a plate reader. […]
(§1) 2) The absorbance of blank wells was subtracted from absorbance of the 100% Initial activity and the […]

5-LOX = test: In vitro 5-LOX inhibitory assay (Abnova 5-LOX inhibitor screening assay kit); format: biochemical
Excerpt: The newly synthesised compounds were screened for their ability to inhibit 5-LOX enzymes. […] (Page: S21, Supplementary file). […]
In vitro LOX inhibitory assay
Inhibitor Screening Assay Kit detects and measures the hydroperoxides produced in the lipoxygenation reaction using a purified LOX. The detection reaction is equally sensitive to hydroperoxides at various positions within the fatty acid and will work with fatty acids of any carbon length. It is thus a general detection method for 5-LOX and can be used to screen libraries of compounds for those which inhibit 5 -LOX enzymes.
1) Blank Wells- add 100 µL of assay buffer to at least two wells.
2) Positive Control Wells- Lipoxygenase (15-LO standard) add 90 µL 15-LO and 10 µL of assay buffer […]
3) 100% Initial Activity Wells- add 90 µL 15-LO and 10 µL of solvent (DMSO) (the same solvent to dissolve the inhibitor) to two wells. The 100% initial activity wells should result in approximately 10 […]
4) Inhibitor Wells- add 90 µL of sample and I10 µL of inhibitor to two wells.
5) Initiate the reaction by adding 10 µL of substrate (either arachidonic acid or linoleic acid) to all the wells. Place the 96-well plate on a shaker for at least five minutes.
6) Add 100 µL of chromogen to each well to stop enzyme catalysis and develop the reaction. Cover with a plate cover and place the 96-well plate on a shaker for at least five minutes.
7) Remove the cover and read the absorbance at 490-500 nm using a plate reader.
Inhibitors were dissolved in DMSO. The inhibitors were added to the assay in a final volume of 10 µL before initiating with substrate. Three concentrations were prepared (25, 50 and 100 µM) to determine the concentration produced 50% enzyme inhibition.
as §1

**Q.** Which results are given for `Cc1ccc(C(C)C)c(O)c1C=NNC(=O)c1cc(-c2ccccc2)n(-c2ccccc2)n1` [Compound 8d, N'-(2-Hydroxy-3-isopropyl-6-methylbenzylidene)-1,5-diphenyl-1H-pyrazole-3-carbo-hydrazide]?
**A.** Selectivity index (COX-2; SI = COX-1 IC50/COX-2 IC50): 92.6; IC50 (COX-2; mean of three replicates ± SD): 110 ± 7 nM; IC50 (5-LOX): 3.11 ± 0.046 µM
